The record followed here is ChEMBL document CHEMBL3352328, “Synthesis and biological evaluation of a new series of N-acyldiamines as potential antibacterial and antifungal agents” (2014).

In brackets after ≈: the same amount, converted by molar mass. Activity calls are given as the source filed them. The calls are words filed in the database; no cut-off is given here.

In one experiment the test system is Candida albicans. Nature of the experiment: Antifungal activity against Candida albicans ATCC 18804 by broth microdilution method. The experiment is classed as functional.
Experiment [1] deals with Staphylococcus aureus. Nature of the experiment: Antimicrobial activity against Staphylococcus aureus ATCC 29213 by broth dilution method. The experiment is classed as functional.
In experiment [2] the test system is Escherichia coli. Nature of the experiment: Antimicrobial activity against Escherichia coli ATCC 11229 by broth dilution method. The experiment is classed as functional.
The test system of a further experiment is Candida parapsilosis. The experiment can be described thus: Antifungal activity against Candida parapsilosis ATCC 22019 by broth microdilution method. The format is functional. To be noted: Lodderomyces parapsilosis.
Experiment [3] relates to Staphylococcus epidermidis. Nature of the experiment: Bacteriostatic activity against Staphylococcus epidermidis ATCC 12228 after 24 hrs. The experiment is classed as functional, organism-based.
A further experiment relates to Nakaseomyces glabratus. Nature of the experiment: Antifungal activity against Candida glabrata ATCC 90030 by broth microdilution method. The format is functional.
Experiment [4] has as its system Staphylococcus epidermidis. The experiment can be described thus: Antimicrobial activity against Staphylococcus epidermidis ATCC 12228 by broth dilution method. The experiment is classed as functional.
The subject of a further experiment is Candida tropicalis. Nature of the experiment: Antifungal activity against Candida tropicalis ATCC 750 by broth microdilution method. The experiment is classed as functional.
Experiment [5] relates to Pseudomonas aeruginosa. The experiment can be described thus: Antimicrobial activity against Pseudomonas aeruginosa ATCC 27853 by broth dilution method. The format is functional.
The test system of experiment [6] is Pseudomonas aeruginosa. Nature of the experiment: Bacteriostatic activity against Pseudomonas aeruginosa ATCC 27853 after 24 hrs. The experiment is classed as functional, organism-based.
For experiment [7], the system named is Staphylococcus aureus. The experiment can be described thus: Bactericidal activity against Staphylococcus aureus ATCC 29213 after 24 hrs. The following applies: ATCC 29213, 24 h. The experiment is classed as functional.
Experiment [8] concerns Escherichia coli. Nature of the experiment: Bacteriostatic activity against Escherichia coli ATCC 11229 after 24 hrs. The experiment is classed as functional, organism-based.
Experiment [9] relates to Staphylococcus aureus. The experiment can be described thus: Bactericidal activity against methicillin-resistant Staphylococcus aureus clinical isolate 10 after 24 hrs. The experiment is classed as functional. To be noted: isolate 10, 24 h.
In experiment [10] the test system is Staphylococcus aureus. Nature of the experiment: Bactericidal activity against methicillin-resistant Staphylococcus aureus clinical isolate 2 after 24 hrs. The following applies: isolate 2, 24 h. The experiment is classed as functional.
The subject of experiment [11] is Staphylococcus aureus. The experiment can be described thus: Bactericidal activity against methicillin-resistant Staphylococcus aureus clinical isolate 3 after 24 hrs. The format is functional. To be noted: isolate 3, 24 h.
Experiment [12] concerns Staphylococcus aureus. The experiment can be described thus: Bactericidal activity against methicillin-resistant Staphylococcus aureus clinical isolate 17 after 24 hrs. The experiment is classed as functional. To be noted: isolate 17, 24 h.
Experiment [13] has as its system Staphylococcus aureus. The experiment can be described thus: Bactericidal activity against methicillin-resistant Staphylococcus aureus clinical isolate 4 after 24 hrs. The format is functional. The following applies: isolate 4, 24 h.
For experiment [14], the system named is Staphylococcus aureus. Nature of the experiment: Bactericidal activity against methicillin-resistant Staphylococcus aureus clinical isolate 5 after 24 hrs. The format is functional. The following applies: isolate 5, 24 h.
In experiment [15] the test system is Staphylococcus aureus. Nature of the experiment: Bactericidal activity against methicillin-resistant Staphylococcus aureus clinical isolate 15 after 24 hrs. The format is functional. To be noted: isolate 15, 24 h.
The test system of experiment [16] is Staphylococcus aureus. Nature of the experiment: Bactericidal activity against methicillin-resistant Staphylococcus aureus clinical isolate after 24 hrs. The experiment is classed as functional.
The subject of experiment [17] is Staphylococcus aureus. The experiment can be described thus: Bactericidal activity against methicillin-resistant Staphylococcus aureus clinical isolate 6 after 24 hrs. The experiment is classed as functional. The following applies: isolate 6, 24 h.
The test system of experiment [18] is Staphylococcus aureus. The experiment can be described thus: Bactericidal activity against methicillin-resistant Staphylococcus aureus clinical isolate 18 after 24 hrs. The experiment is classed as functional. To be noted: isolate 18, 24 h.
Experiment [19] has as its system Staphylococcus aureus. Nature of the experiment: Bactericidal activity against methicillin-resistant Staphylococcus aureus clinical isolate 14 after 24 hrs. The following applies: isolate 14, 24 h. The format is functional.
Experiment [20] concerns Staphylococcus aureus. Nature of the experiment: Bactericidal activity against methicillin-resistant Staphylococcus aureus clinical isolate 21 after 24 hrs. The experiment is classed as functional. The following applies: isolate 21, 24 h.
Experiment [21] relates to Staphylococcus aureus. Nature of the experiment: Bactericidal activity against methicillin-resistant Staphylococcus aureus clinical isolate 20 after 24 hrs. The format is functional. To be noted: isolate 20, 24 h.
The subject of experiment [22] is Staphylococcus aureus. Nature of the experiment: Bactericidal activity against methicillin-resistant Staphylococcus aureus clinical isolate 13 after 24 hrs. The format is functional. To be noted: isolate 13, 24 h.
Experiment [23] concerns Staphylococcus epidermidis. Nature of the experiment: Bactericidal activity against Staphylococcus epidermidis ATCC 12228 after 24 hrs. The format is functional. The following applies: ATCC 12228, 24 h.
In experiment [24] the test system is Staphylococcus aureus. The experiment can be described thus: Bactericidal activity against methicillin-resistant Staphylococcus aureus clinical isolate 7 after 24 hrs. The experiment is classed as functional. To be noted: isolate 7, 24 h.
The subject of experiment [25] is Staphylococcus aureus. Nature of the experiment: Bactericidal activity against methicillin-resistant Staphylococcus aureus clinical isolate 12 after 24 hrs. The format is functional. The following applies: isolate 12, 24 h.
In experiment [26] the test system is Staphylococcus aureus. The experiment can be described thus: Bactericidal activity against methicillin-resistant Staphylococcus aureus clinical isolate 16 after 24 hrs. The experiment is classed as functional. To be noted: isolate 16, 24 h.
The subject of experiment [27] is Escherichia coli. The experiment can be described thus: Bactericidal activity against Escherichia coli ATCC 11229 after 24 hrs. To be noted: ATCC 11229, 24 h. The experiment is classed as functional.
For experiment [28], the system named is Staphylococcus aureus. The experiment can be described thus: Bactericidal activity against methicillin-resistant Staphylococcus aureus clinical isolate 8 after 24 hrs. The format is functional. To be noted: isolate 8, 24 h.
Experiment [29] relates to Staphylococcus aureus. Nature of the experiment: Bactericidal activity against methicillin-resistant Staphylococcus aureus clinical isolate 9 after 24 hrs. The format is functional. The following applies: isolate 9, 24 h.
Experiment [30] deals with Pseudomonas aeruginosa. Nature of the experiment: Bactericidal activity against Pseudomonas aeruginosa ATCC 27853 after 24 hrs. The experiment is classed as functional. To be noted: ATCC 27853, 24 h.
Experiment [31] relates to Staphylococcus aureus. The experiment can be described thus: Bactericidal activity against methicillin-resistant Staphylococcus aureus clinical isolate 19 after 24 hrs. The format is functional. To be noted: isolate 19, 24 h.
For experiment [32], the system named is Staphylococcus aureus. The experiment can be described thus: Bactericidal activity against methicillin-resistant Staphylococcus aureus clinical isolate 11 after 24 hrs. The following applies: isolate 11, 24 h. The experiment is classed as functional.
The test system of experiment [33] is Staphylococcus aureus. The experiment can be described thus: Bactericidal activity against methicillin-resistant Staphylococcus aureus clinical isolate 1 after 24 hrs. The experiment is classed as functional. The following applies: isolate 1, 24 h.

In the case of `CCCCCCCCCCCCCC(=O)NCCCN`, the MIC in the experiment with Candida albicans is 32 mg/L (≈ 112 µM); in the experiment on Staphylococcus aureus [1] it was > 1020 mg/L; against Escherichia coli [2] it was > 1020 mg/L; against Candida parapsilosis, 16 mg/L (≈ 56.2 µM); in the experiment with Nakaseomyces glabratus, 64 mg/L (≈ 225 µM); in experiment [4] it was 1020 mg/L (≈ 3600 µM). The values for the MIC in the experiment with Candida tropicalis and in the experiment with Pseudomonas aeruginosa [5] were 32 mg/L (≈ 112 µM) and 1020 mg/L (≈ 3600 µM), respectively. Also, the result (in [3]; in the experiment on Pseudomonas aeruginosa [6]) was Active.

As to `CCCCCCCCCCCCCC(=O)NCCN`, the MBC in the experiment with Staphylococcus aureus [7] was determined as 128 mg/L (≈ 473 µM); in the experiment with Staphylococcus aureus [9], 512 mg/L (≈ 1890 µM); in the experiment on Staphylococcus aureus [10] it was 512 mg/L (≈ 1890 µM); with Staphylococcus aureus [11], 512 mg/L (≈ 1890 µM); in the experiment with Staphylococcus aureus [12] it was 128 mg/L (≈ 473 µM); against Staphylococcus aureus [13], 512 mg/L (≈ 1890 µM). For the same molecule, the MBC in the experiment with Staphylococcus aureus [14] worked out at 512 mg/L (≈ 1890 µM); against Staphylococcus aureus [15], 64 mg/L (≈ 237 µM); in the experiment with Staphylococcus aureus [17], 512 mg/L (≈ 1890 µM); against Staphylococcus aureus [18], 128 mg/L (≈ 473 µM); with Staphylococcus aureus [19], 128 mg/L (≈ 473 µM); with Staphylococcus aureus [20], 128 mg/L (≈ 473 µM). In addition, the MIC with Candida albicans amounted to 4 mg/L (≈ 14.8 µM); in the experiment with Staphylococcus aureus [1] it was 8 mg/L (≈ 29.6 µM); against Escherichia coli [2], 64 mg/L (≈ 237 µM); in the experiment with Candida parapsilosis, 32 mg/L (≈ 118 µM); with Nakaseomyces glabratus, 16 mg/L (≈ 59.2 µM); in [4] it was 16 mg/L (≈ 59.2 µM). The minimum inhibitory concentration (MIC) was 16 mg/L (≈ 59.2 µM) with Candida tropicalis and 1020 mg/L (≈ 3790 µM) in the experiment on Pseudomonas aeruginosa [5]. Further, the outcome (in the experiment on Escherichia coli [8]; in [3]; in the experiment on Pseudomonas aeruginosa [6]) was Active. Further, in the experiment on Staphylococcus aureus [16], the MIC50 came to 32 mg/L (≈ 118 µM). The same molecule gave an MIC90 with Staphylococcus aureus [16] of 256 mg/L (≈ 947 µM).

Consider `CCCCCCCC/C=C\CCCCCCCC(=O)NCCN`, for which the MIC in the experiment with Candida albicans is 128 mg/L (≈ 394 µM); in the experiment with Staphylococcus aureus [1], > 1020 mg/L; with Escherichia coli [2], > 1020 mg/L; in the experiment on Candida parapsilosis, 128 mg/L (≈ 394 µM); in the experiment with Nakaseomyces glabratus, 64 mg/L (≈ 197 µM); in [4], 8 mg/L (≈ 24.6 µM). Moreover, the minimal inhibitory concentration (MIC) against Candida tropicalis was 128 mg/L (≈ 394 µM); against Pseudomonas aeruginosa [5] it was > 1020 mg/L. For the same molecule, in [3], the result was Active.

In the case of `CCCCCCCCCCCC(=O)NCCN`, the minimum bactericidal concentration (MBC) with Staphylococcus aureus [21] was determined as 256 mg/L (≈ 1060 µM); against Staphylococcus aureus [7], 16 mg/L (≈ 66 µM); against Staphylococcus aureus [22], 32 mg/L (≈ 132 µM); in experiment [23] it was 16 mg/L (≈ 66 µM); in the experiment on Staphylococcus aureus [24], 32 mg/L (≈ 132 µM); with Staphylococcus aureus [9] it was 32 mg/L (≈ 132 µM). For the same molecule, the MBC against Staphylococcus aureus [25] is > 1020 mg/L; in the experiment on Staphylococcus aureus [10], 256 mg/L (≈ 1060 µM); with Staphylococcus aureus [11] it was 1020 mg/L (≈ 4220 µM); against Staphylococcus aureus [12], 256 mg/L (≈ 1060 µM); in the experiment on Staphylococcus aureus [26] it was 1020 mg/L (≈ 4220 µM); in the experiment with Staphylococcus aureus [13], 256 mg/L (≈ 1060 µM). The minimum bactericidal concentration (MBC) was found to be 16 mg/L (≈ 66 µM) against Escherichia coli [27]; 32 mg/L (≈ 132 µM) against Staphylococcus aureus [14]; 16 mg/L (≈ 66 µM) in the experiment on Staphylococcus aureus [28]; 32 mg/L (≈ 132 µM) against Staphylococcus aureus [29]; 1020 mg/L (≈ 4220 µM) with Staphylococcus aureus [15]; 32 mg/L (≈ 132 µM) with Staphylococcus aureus [17]. The MBC against Pseudomonas aeruginosa [30] is 16 mg/L (≈ 66 µM); in the experiment with Staphylococcus aureus [18], 32 mg/L (≈ 132 µM); against Staphylococcus aureus [31], 128 mg/L (≈ 528 µM); against Staphylococcus aureus [19], > 1020 mg/L; against Staphylococcus aureus [20] it was > 1020 mg/L; in the experiment on Staphylococcus aureus [32], > 1020 mg/L. This molecule also gave an MBC in the experiment with Staphylococcus aureus [33] of 1020 mg/L (≈ 4220 µM). The MIC in the experiment with Candida albicans amounted to 128 mg/L (≈ 528 µM); against Staphylococcus aureus [1] it was 16 mg/L (≈ 66 µM); in the experiment with Escherichia coli [2], 8 mg/L (≈ 33 µM); in the experiment with Candida parapsilosis it was 16 mg/L (≈ 66 µM); in the experiment on Nakaseomyces glabratus it was 16 mg/L (≈ 66 µM); in [4] it was 16 mg/L (≈ 66 µM). Further, the minimum inhibitory concentration (MIC) in the experiment with Candida tropicalis is 16 mg/L (≈ 66 µM); against Pseudomonas aeruginosa [5], 8 mg/L (≈ 33 µM). In the experiment with Staphylococcus aureus [16], this molecule yielded an MIC50 of 32 mg/L (≈ 132 µM). The MIC90 in the experiment with Staphylococcus aureus [16] is > 1020 mg/L.
